Laboratory results published in US9926302B2, “Heteroaryl substituted heterocyclyl sulfones” (priority 2014, dated 2018).

Each molecule was assayed against T1, Human CaV2.2 channels (Homo sapiens, UniProt Q00975) (assay: Fluorescence assay for CaV2.2 channels using potassium depolarization to induce channel opening (FLIPR, Fluo 4)). Conditions: 3 μM test compound; alternative assay buffer 30 mM KCl (inactivated channel state); HEK293 cells stably expressing human CaV2.2.
T1 construct: expressed in transfected cells
T1 sequence (P54289 947-1103): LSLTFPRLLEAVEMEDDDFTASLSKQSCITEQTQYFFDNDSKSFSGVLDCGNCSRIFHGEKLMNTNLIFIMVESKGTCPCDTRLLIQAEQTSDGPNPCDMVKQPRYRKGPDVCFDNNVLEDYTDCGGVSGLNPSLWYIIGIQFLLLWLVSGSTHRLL
T1 sequence (P54289 25-946): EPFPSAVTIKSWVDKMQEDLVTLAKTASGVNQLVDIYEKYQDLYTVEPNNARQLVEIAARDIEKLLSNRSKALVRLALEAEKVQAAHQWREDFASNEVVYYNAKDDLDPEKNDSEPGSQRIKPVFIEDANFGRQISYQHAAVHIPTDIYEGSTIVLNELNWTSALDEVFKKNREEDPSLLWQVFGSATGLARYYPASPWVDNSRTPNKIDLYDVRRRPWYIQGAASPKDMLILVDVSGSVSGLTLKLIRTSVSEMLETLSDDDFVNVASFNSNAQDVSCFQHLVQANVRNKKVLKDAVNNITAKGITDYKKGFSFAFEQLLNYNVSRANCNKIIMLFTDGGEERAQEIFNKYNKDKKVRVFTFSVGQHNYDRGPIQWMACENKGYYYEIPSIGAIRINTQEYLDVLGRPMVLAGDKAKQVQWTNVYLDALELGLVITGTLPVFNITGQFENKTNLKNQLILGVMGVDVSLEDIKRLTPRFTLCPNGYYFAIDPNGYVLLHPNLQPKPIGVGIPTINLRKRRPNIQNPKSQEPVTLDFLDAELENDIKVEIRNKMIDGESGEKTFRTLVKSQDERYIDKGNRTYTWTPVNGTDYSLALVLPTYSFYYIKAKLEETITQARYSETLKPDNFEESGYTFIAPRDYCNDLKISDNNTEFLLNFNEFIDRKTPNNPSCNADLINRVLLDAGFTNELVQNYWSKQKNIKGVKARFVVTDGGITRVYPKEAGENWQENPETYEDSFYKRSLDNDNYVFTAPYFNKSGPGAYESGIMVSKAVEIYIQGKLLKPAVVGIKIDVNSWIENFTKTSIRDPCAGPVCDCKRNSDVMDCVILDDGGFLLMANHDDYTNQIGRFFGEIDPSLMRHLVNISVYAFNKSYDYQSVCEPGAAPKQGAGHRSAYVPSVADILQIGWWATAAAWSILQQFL
T1 sequence (P54284 whole entry, further chain): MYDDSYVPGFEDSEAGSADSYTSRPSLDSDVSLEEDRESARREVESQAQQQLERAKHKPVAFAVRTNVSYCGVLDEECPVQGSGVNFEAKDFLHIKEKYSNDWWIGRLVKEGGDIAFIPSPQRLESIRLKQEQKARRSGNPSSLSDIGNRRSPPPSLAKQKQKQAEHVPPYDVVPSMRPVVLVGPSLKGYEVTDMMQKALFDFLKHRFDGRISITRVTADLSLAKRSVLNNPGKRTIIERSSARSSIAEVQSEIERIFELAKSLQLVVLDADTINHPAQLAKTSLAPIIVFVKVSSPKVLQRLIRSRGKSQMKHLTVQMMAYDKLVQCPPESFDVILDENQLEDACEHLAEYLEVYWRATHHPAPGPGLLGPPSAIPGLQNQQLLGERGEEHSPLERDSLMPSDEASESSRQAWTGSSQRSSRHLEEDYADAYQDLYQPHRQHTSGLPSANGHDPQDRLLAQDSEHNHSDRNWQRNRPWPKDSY
T1 sequence (Q00975 whole entry): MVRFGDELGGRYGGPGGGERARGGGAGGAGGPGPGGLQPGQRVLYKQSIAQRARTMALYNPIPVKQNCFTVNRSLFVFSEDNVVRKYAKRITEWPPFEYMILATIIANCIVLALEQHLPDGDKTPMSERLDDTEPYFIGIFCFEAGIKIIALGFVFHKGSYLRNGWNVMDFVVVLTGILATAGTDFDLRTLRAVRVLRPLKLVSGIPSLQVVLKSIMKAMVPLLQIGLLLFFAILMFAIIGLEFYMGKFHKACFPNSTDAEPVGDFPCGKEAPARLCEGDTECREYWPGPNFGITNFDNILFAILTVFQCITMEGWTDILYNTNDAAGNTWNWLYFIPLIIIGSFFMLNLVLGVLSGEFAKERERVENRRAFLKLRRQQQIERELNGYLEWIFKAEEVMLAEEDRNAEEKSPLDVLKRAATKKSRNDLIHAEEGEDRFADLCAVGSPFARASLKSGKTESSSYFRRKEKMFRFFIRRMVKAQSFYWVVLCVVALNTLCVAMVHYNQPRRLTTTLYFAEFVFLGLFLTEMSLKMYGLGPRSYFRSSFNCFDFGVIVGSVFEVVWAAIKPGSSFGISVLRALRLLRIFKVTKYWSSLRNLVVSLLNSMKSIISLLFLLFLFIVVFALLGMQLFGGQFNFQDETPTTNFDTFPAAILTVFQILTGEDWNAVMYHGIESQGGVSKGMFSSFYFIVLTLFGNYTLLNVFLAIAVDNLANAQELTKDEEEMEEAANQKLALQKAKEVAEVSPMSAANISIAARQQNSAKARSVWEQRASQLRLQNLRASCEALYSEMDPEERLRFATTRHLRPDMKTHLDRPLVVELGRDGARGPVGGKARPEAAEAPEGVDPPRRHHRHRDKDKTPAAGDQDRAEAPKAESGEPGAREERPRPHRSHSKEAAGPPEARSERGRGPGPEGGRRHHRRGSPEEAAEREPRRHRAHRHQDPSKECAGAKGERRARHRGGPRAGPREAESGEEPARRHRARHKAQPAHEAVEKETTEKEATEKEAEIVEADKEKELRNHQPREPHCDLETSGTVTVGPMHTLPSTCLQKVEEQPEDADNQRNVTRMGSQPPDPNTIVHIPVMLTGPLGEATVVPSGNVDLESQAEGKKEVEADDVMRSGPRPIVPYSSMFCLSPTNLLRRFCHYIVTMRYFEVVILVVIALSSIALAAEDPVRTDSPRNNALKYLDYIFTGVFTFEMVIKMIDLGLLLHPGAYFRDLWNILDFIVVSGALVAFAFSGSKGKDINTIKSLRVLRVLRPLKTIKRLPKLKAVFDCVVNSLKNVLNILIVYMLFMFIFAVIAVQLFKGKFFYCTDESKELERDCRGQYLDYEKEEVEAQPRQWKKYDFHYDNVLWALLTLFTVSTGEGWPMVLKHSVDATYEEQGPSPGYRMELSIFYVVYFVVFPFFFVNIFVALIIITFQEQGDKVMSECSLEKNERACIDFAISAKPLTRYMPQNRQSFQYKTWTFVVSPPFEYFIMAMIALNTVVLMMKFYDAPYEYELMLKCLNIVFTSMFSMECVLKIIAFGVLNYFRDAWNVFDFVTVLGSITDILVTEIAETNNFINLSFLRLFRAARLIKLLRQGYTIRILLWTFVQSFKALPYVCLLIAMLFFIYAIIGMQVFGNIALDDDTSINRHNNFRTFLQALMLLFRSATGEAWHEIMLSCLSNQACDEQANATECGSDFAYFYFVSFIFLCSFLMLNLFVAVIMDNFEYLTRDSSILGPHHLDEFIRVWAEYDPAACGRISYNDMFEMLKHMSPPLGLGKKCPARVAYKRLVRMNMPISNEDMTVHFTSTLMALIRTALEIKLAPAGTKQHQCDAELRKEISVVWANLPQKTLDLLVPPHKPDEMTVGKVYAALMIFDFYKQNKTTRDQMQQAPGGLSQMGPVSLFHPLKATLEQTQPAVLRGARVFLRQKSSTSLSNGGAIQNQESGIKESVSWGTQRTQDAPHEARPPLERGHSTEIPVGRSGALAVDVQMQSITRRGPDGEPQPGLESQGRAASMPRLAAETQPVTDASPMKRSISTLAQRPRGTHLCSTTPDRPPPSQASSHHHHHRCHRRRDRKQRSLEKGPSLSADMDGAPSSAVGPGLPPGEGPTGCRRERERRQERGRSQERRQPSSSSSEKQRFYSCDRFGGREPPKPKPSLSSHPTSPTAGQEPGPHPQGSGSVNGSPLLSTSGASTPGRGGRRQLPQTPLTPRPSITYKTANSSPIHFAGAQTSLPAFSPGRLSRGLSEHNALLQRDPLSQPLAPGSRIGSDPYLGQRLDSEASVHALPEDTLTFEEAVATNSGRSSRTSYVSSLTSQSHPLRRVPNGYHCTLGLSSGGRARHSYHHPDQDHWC
Assay type: cell-based
Outline: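 HEK293 cells stably co-expressing CaV2.2 with alpha2-delta and beta subunits plus Kir2.3, loaded with 2 μM Fluo 4 and pre-incubated 15 min at 25° C with compound in 1 mM or 30 mM KCl buffer (pH 7.4; latter promotes inactivated state). Depolarized by KCl addition; peak fluorescence amplitude normalized to baseline gives inhibition.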

Compound | Activity Category: %-Inhib (CaV2.2) @3 μM @30 mM KCl
Cn1nc(C(F)(F)F)cc1C1CC(C)(S(=O)(=O)c2cccc(C(F)(F)F)c2)CCO1 (stereo not drawn) [SC-345, 1-Methyl-5-[4-methyl-4-[[3-(trifluoromethyl)phenyl]sulfonyl]-tetrahydro-pyran-2-yl]-3-(trifluoromethyl)-1H-pyrazole] | A (%-Inhibition >95%)
Cc1cc(S(C)(=O)=O)cnc1C1CC(C)(S(=O)(=O)c2cc(F)cc(C(F)(F)F)c2)CCO1 (stereo not drawn) [SC-444, 2-[4-[[3-Fluoro-5-(trifluoromethyl)-phenyl]sulfonyl]-4-methyl-tetrahydro-pyran-2-yl]-3-methyl-5-methylsulfonyl-pyridine] | B (%-Inhibition >75% up to ≤95%)
CC(C)c1nnc(C2CC(C)(S(=O)(=O)c3cccc(C(F)(F)F)c3)CCO2)o1 (single isomer, unassigned) [SC-125, 2-Isopropyl-5-[4-methyl-4-[[3-(trifluoromethyl)phenyl]sulfonyl]-tetrahydro-pyran-2-yl]-[1,3,4]oxadiazole] | C (%-Inhibition >40% up to ≤75%)
CC1(S(=O)(=O)c2cccc(C(F)(F)F)c2)CCOC(c2cnc(C3CC3)nc2)C1 (stereo not drawn) [SC-204, 2-Cyclopropyl-5-[4-methyl-4-[[3-(trifluoromethyl)phenyl]sulfonyl]-tetrahydro-pyran-2-yl]-pyrimidine] | B (%-Inhibition >75% up to ≤95%)
COc1ncc(C2CC(C)(S(=O)(=O)c3cccc(C(F)(F)F)c3)CCO2)cc1F (stereo not drawn) [SC-256, 3-Fluoro-2-methoxy-5-[4-methyl-4-[[3-(trifluoromethyl)phenyl]sulfonyl]-tetrahydro-pyran-2-yl]-pyridine] | B (%-Inhibition >75% up to ≤95%)

Same assay, conditions: HEK293, 3 μM test compound; alternative assay buffer 30 mM KCl (inactivated channel state); HEK293 cells stably expressing human CaV2.2; read-out: Activity Category: %-Inhib (CaV2.2) @3 μM @30 mM KCl

Compound | inhibition at 3 µM
CCC1(S(=O)(=O)c2cccc(C(F)(F)F)c2)CCOC(c2ccc(C)nc2C)C1 (racemic) [SC-319, 3-[4-Ethyl-4-[[3-(trifluoromethyl)phenyl]sulfonyl]-tetrahydro-pyran-2-yl]-2,6-dimethyl-pyridine] | 40 to 75%
CC(C)Oc1ccc(C2CC(C)(S(=O)(=O)c3cccc(C(F)(F)F)c3)CCO2)cn1 (stereo not drawn) [SC-300, 2-Isopropoxy-5-[4-methyl-4-[[3-(trifluoromethyl)phenyl]sulfonyl]-tetrahydro-pyran-2-yl]-pyridine] | > 95%
CNc1ccc(C2CC(C)(S(=O)(=O)c3cccc(C(F)(F)F)c3)CCO2)cn1 (stereo not drawn) [SC-408, Methyl-[5-[4-methyl-4-[[3-(trifluoromethyl)phenyl]sulfonyl]-tetrahydro-pyran-2-yl]-pyridin-2-yl]-amine] | 75 to 95%
CC(C)c1cccc(S(=O)(=O)C2(C)CCOC(c3ncc(S(C)(=O)=O)cc3Cl)C2)c1 (stereo not drawn) [SC-446, 3-Chloro-2-[4-[(3-isopropyl-phenyl)sulfonyl]-4-methyl-tetrahydro-pyran-2-yl]-5-methylsulfonyl-pyridine] | 75 to 95%
CC1(S(=O)(=O)c2cccc(OC(F)(F)F)c2)CCOC(c2ncc(S(C)(=O)=O)cc2Cl)C1 (stereo not drawn) [SC-218, 3-Chloro-5-methylsulfonyl-2-[4-methyl-4-[[3-(trifluoromethyloxy)-phenyl]sulfonyl]-tetrahydro-pyran-2-yl]-pyridine] | 75 to 95%
Cc1cc(S(C)(=O)=O)cnc1C1CC(C)(S(=O)(=O)c2cccc(C(F)(F)F)c2)CCO1 (racemic) [SC-441, 3-Methyl-5-methylsulfonyl-2-[4-methyl-4-[[3-(trifluoromethyl)phenyl]sulfonyl]-tetrahydro-pyran-2-yl]-pyridine] | 75 to 95%
CC1(S(=O)(=O)c2cccc(C(F)(F)F)c2)CCOC(c2cncc(C3CC3)c2)C1 (stereo not drawn) [SC-325, 3-Cyclopropyl-5-[4-methyl-4-[[3-(trifluoromethyl)phenyl]sulfonyl]-tetrahydro-pyran-2-yl]-pyridine] | > 95%
Cn1nc(C2CC2)cc1C1CC(C)(S(=O)(=O)c2cccc(C(F)(F)F)c2)CCO1 (stereo not drawn) [SC-431, 3-Cyclopropyl-1-methyl-5-[4-methyl-4-[[3-(trifluoromethyl)phenyl]sulfonyl]-tetrahydro-pyran-2-yl]-1H-pyrazole] | 75 to 95%
CCC1(S(=O)(=O)c2cccc(C(F)(F)F)c2)CCOC(c2noc(C3CC3)n2)C1 (stereo not drawn) [SC-238, 5-Cyclopropyl-3-[4-ethyl-4-[[3-(trifluoromethyl)phenyl]sulfonyl]-tetrahydro-pyran-2-yl]-[1,2,4]oxadiazole] | 75 to 95%
CCC1(S(=O)(=O)c2cccc(C(F)(F)F)c2)CCOC(c2cnc(C3CC3)cn2)C1 (stereo not drawn) [SC-332, 2-Cyclopropyl-5-[4-ethyl-4-[[3-(trifluoromethyl)phenyl]sulfonyl]-tetrahydro-pyran-2-yl]-pyrazine] | 75 to 95%
C[S+]([O-])c1cnc(C2CC(C)(S(=O)(=O)c3cccc(C(F)(F)F)c3)CCO2)c(Cl)c1 (stereo not drawn) [SC-233, 3-Chloro-5-(methylsulfinyl)-2-[4-methyl-4-[[3-(trifluoromethyl)phenyl]sulfonyl]-tetrahydro-pyran-2-yl]-pyridine] | 40 to 75%
Cn1nc(C2CC2)cc1C1CC(C)(S(=O)(=O)c2cccc(C(F)(F)F)c2)CCO1 (racemic) [SC-434, 3-Cyclopropyl-1-methyl-5-[4-methyl-4-[[3-(trifluoromethyl)phenyl]sulfonyl]-tetrahydro-pyran-2-yl]-1H-pyrazole] | 75 to 95%
Cc1cccc(C2CC(S(=O)(=O)c3cccc(C(F)(F)F)c3)CCO2)n1 (racemic) [SC-341, 2-methyl-6-[4-[[3-(trifluoromethyl)phenyl]sulfonyl]-tetrahydro-pyran-2-yl]-pyridine] | 40 to 75%
CC1(S(=O)(=O)c2cccc(C(F)(F)F)c2)CCOC(c2ncc(S(C)(=O)=O)cc2Cl)C1 (single isomer, unassigned) [SC-130, 3-Chloro-5-methylsulfonyl-2-[4-methyl-4-[[3-(trifluoromethyl)phenyl]sulfonyl]-tetrahydro-pyran-2-yl]-pyridine] | 75 to 95%
CC1(S(=O)(=O)c2cccc(C(F)(F)F)c2)CCOC(c2ccc(C(F)(F)F)nc2)C1 (racemic) [SC-306, 5-[4-Methyl-4-[[3-(trifluoromethyl)phenyl]sulfonyl]-tetrahydro-pyran-2-yl]-2-(trifluoromethyl)-pyridine] | > 95%
CCC1(S(=O)(=O)c2cccc(C(F)(F)F)c2)CCOC(c2nc(C3CC3)no2)C1 (stereo not drawn) [SC-202, 3-Cyclopropyl-5-[4-ethyl-4-[[3-(trifluoromethyl)phenyl]sulfonyl]-tetrahydro-pyran-2-yl]-[1,2,4]oxadiazole] | 75 to 95%
CC1(S(=O)(=O)c2cccc(S(C)(=O)=O)c2)CCOC(c2ncc(C(F)(F)F)cc2S(C)(=O)=O)C1 (stereo not drawn) [SC-210, 2-[4-Methyl-4-[(3-methylsulfonyl-phenyl)sulfonyl]-tetrahydro-pyran-2-yl]-3-methylsulfonyl-5-(trifluoromethyl)-pyridine] | > 95%
CC1(S(=O)(=O)c2cccc(C(F)(F)F)c2)CCOC(c2ccc(C(F)(F)F)nc2)C1 (stereo not drawn) [SC-315, 5-[4-Methyl-4-[[3-(trifluoromethyl)phenyl]sulfonyl]-tetrahydro-pyran-2-yl]-2-(trifluoromethyl)-pyridine] | > 95%
CC1(S(=O)(=O)c2cccc(C(F)(F)F)c2)CCOC(COc2ccc(C(F)(F)F)nc2)C1 (stereo not drawn) [SC-208, 5-[[4-Methyl-4-[[3-(trifluoromethyl)phenyl]sulfonyl]-tetrahydro-pyran-2-yl]-methoxy]-2-(trifluoromethyl)-pyridine] | 75 to 95%
